Assay results reported in PMC7150891, “Mertansine Inhibits mRNA Expression and Enzyme Activities of Cytochrome P450s and Uridine 5′-Diphospho-Glucuronosyltransferases in Human Hepatocytes and Liver Microsomes” (Pharmaceutics, 2020).
“Also recorded” adds a separate entry of the source.

How the values were obtained:
[1] = biological target: T1, UGT1A3 (Homo sapiens, UniProt P35503); assay: Inhibition of UGT1A3-catalyzed chenodeoxycholic acid 24-acyl-β-glucuronidation in ultrapooled human liver microsomes; assay type: in vitro ADME
T1 construct: ultrapooled human liver microsomes (0.2 mg/mL); from tissue; host or cells: human liver microsomes (ultrapooled)
T1 sequence (P35503 29-534): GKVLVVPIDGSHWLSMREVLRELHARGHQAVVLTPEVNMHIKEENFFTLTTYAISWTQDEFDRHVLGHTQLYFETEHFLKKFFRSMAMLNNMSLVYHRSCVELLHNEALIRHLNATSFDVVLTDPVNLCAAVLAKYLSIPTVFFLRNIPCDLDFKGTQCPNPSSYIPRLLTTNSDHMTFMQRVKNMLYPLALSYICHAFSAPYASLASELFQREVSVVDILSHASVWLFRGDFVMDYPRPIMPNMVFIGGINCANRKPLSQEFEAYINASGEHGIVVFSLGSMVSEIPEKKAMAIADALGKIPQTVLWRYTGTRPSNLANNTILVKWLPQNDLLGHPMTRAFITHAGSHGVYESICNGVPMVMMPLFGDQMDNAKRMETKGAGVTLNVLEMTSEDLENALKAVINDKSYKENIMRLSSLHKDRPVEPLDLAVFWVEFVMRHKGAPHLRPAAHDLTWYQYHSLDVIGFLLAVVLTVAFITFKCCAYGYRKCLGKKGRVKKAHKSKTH
Procedure: (§1) The inhibitory potential of mertansine on UGT1A1, UGT1A3, UGT1A4, UGT1A6, UGT1A9, and UGT2B7 activities was evaluated using liquid chromatography–tandem mass spectrometry (LC-MS/MS) with a cocktail of UGT substrates and ultrapooled human liver microsomes. Each incubation mixture was prepared to a final volume of 100 μL as follows: ultrapooled human liver microsomes (0.2 mg/mL), 5 mM UDPGA, 10 mM magnesium chloride, alamethicin (25 μg/mL), 50 mM Tris buffer (pH 7.4), various concentrations of mertansine in methanol (final concentrations of 0.01–50 μM), and the cocktail sets of UGT enzyme-specific substrates. Two cocktail sets were used: set A contained 0.5 μM SN-38 for UGT1A1, 2 μM chenodeoxycholic acid for UGT1A3, and 0.5 μM trifluoperazine for UGT1A4; and set B contained 1 μM N-acetylserotonin for UGT1A6, 0.2 μM mycophenolic acid for UGT1A9, and 1 μM naloxone for UGT2B7. The reactions were initiated by adding UDPGA and incubated in a shaking water bath for 60 min at 37 °C. […] Next, 50 μL of each supernatant of sets A and B was mixed, and aliquots (5 μL) were analyzed using LC-MS/MS. […]
(§2) The LC-MS/MS system was comprised of an Agilent 6495 triple quadrupole mass spectrometer coupled with an Agilent 1290 Infinity system (Agilent Technologies, Wilmington, DE, USA). […] The electrospray ionization (ESI) source settings in both positive and negative ion modes were as follows: gas temperature, 200 °C; gas flow, 14 L/min; nebulizer, 40 psi; sheath gas temperature, 380 °C; sheath gas flow, 11 L/min; capillary voltage, 4500 V; and nozzle voltage, 500 V. Each metabolite was quantified via selected reaction monitoring in the negative ion mode (chenodeoxycholic acid 24-acyl-β-glucuronide, m/z 567.1 to 391.2; mycophenolic acid β-D-glucuronide, m/z 495.0 to 319.0; propofol glucuronide (IS), m/z 353.0 to 177.0) and in the positive ion mode (SN-38 glucuronide, m/z 568.9 to 392.9; trifluoperazine N-β-D-glucuronide, m/z 583.9 to 407.9; N-acetylserotonin β-D-glucuronide, m/z 394.0 to 219.0; naloxone 3-β-D-glucuronide, m/z 503.9 to 309.9; meloxicam (IS), m/z 351.9 to 115.0). […]

[2] = biological target: T2, UGT1A1 (Homo sapiens, UniProt P22309); assay: Inhibition of UGT1A1-catalyzed SN-38 glucuronidation in ultrapooled human liver microsomes; assay type: in vitro ADME
T2 construct: ultrapooled human liver microsomes (0.2 mg/mL); from tissue; host or cells: human liver microsomes (ultrapooled)
T2 sequence (P22309 26-533): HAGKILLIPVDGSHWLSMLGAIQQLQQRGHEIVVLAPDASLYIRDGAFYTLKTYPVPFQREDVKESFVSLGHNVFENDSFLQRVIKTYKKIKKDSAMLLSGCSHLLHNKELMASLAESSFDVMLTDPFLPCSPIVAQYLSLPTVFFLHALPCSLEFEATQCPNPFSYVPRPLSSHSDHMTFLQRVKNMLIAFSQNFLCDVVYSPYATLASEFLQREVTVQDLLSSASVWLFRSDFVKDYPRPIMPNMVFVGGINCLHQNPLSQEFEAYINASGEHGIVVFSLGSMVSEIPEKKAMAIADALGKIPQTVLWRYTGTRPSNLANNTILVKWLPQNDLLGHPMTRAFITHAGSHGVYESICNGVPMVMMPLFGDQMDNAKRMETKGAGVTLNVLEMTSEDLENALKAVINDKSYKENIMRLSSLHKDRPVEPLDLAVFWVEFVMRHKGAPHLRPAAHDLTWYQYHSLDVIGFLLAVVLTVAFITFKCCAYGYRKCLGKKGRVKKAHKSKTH
Procedure: as §1, §2

[3] = test system: CYP2C8; parameters: method as in PMID 25048520, PMID 22752008; details: human liver microsomes, competitive; read-out: Ki, CYP2C8-mediated paclitaxel 6α-hydroxylation; cited from earlier work
[4] = human liver microsomes, Dixon plot

SMILES: COc1cc2cc(c1Cl)N(C)C(=O)CC(OC(=O)C(C)N(C)C(=O)CCS)C1(C)OC1C(C)C1CC(O)(NC(=O)O1)C(OC)C=CC=C(C)C2 (stereo not shown) [mertansine, Mertansine]
- Inhibition Mode, UGT1A3 [1, 4]: competitively inhibited; also recorded: competitive inhibitor
- Ki ([1]; human liver microsomes, chenodeoxycholic acid 0.5–5 µM): 4.3 µM
- IC50 ([1]; ultrapooled human liver microsomes, 2 µM chenodeoxycholic acid (cocktail)): 6.4 µM
- Inhibition Mode, UGT1A1 [2, 4]: noncompetitively inhibited; also recorded: noncompetitive inhibitor
- Ki ([2]; human liver microsomes, SN-38 0.2–2 µM): 13.5 µM
- IC50 ([2]; ultrapooled human liver microsomes, 0.5 µM SN-38 (cocktail)): 16.2 µM
- Ki [3]: 11 µM
